Test results published in patent US20240139226A1, “A COMPOSITION FOR PROMOTING GLP-1 SECRETION” (priority 2021, published 2024).
Where two headings read alike, the source gives them in different places.

Test system: NCI-H716 cells
Test: GLP-1 secretion-promoting effect using NCI-H716 cells (GLP-1 in supernatant by ELISA)
Format: cell-based, Human
Settings: for GLP-1 secretion compared to Control: Experiment 1-3, text on Table 1, mGN 2.5 mM, flavor component 0.25 mM; for activity at 125 µM: test sample alone at 0.125 mM; for activity at 25 µM: test sample alone at 0.025 mM; for activity at 2500 µM: test sample alone at 2.5 mM; for activity at 25000 µM: test sample alone at 25 mM
Experimental: GLP-1 secretion-promoting effect was evaluated by the following experiment using NCI-H716 cells (Human intestinal tract-derived cell line; purchased from ATCC).
NCI-H716 cells were cultured at 37° C. with 5% CO2 using RPMI1640 (supplemented with 10% Fetal Bovine Serum, manufactured by Sigma) as a cell culture medium for passage. After culturing, cells were suspended in DMEM medium (supplemented with 10% Fetal Bovine Serum; containing 4.5 mg/mL of glucose; manufactured by Shimadzu Diagnostics Corporation, Tokyo, Japan) and added to a Matrigel (120 μL/well; manufactured by Corning Incorporated, NY, USA)-coated 48-well plate at a cell density of 1.2×10^5 cells/well. After incubation for 2 days, the cells were washed twice with 20 mM HEPES-containing HBSS (Hank's Balanced Salt Solution) buffer. After removal of the washing buffer, 20 mM HEPES-HBSS (supplemented with 0.01% BSA) containing the above-described test samples was added and the cells were incubated for 2 hours. After incubation, the supernatant was collected into a microcentrifuge tube containing diprotin-A (DPP4 inhibitor, manufactured by Abcam plc., Cambridge, UK) and protease inhibitors (cOmplete™, EDTA-free Protease Inhibitor Cocktail, Roche, Basel, Switzerland; Catalogue No. 1187358001). After centrifugation, the supernatant was stored at −80° C. until it was used for the GLP-1 measurement. The amount of GLP-1 in the medium was measured by ELISA method using GLP-1 Active Form Assay Kit (manufactured by Immuno-Biological Laboratories Co, Ltd., Gunma, Japan). […] As a positive control for measuring cytotoxicity, the cells added with 0.1% Triton X-100/PBS (−) (Phosphate Buffered Saline) were used. The LDH activity in the cell culture supernatant of the positive control was set as 100% and the ratio to the positive control (LDH activity in the cell culture supernatant of sample/LDH activity in the positive control) was calculated as the cytotoxicity rate. Herein, it was judged that a sample had no cytotoxicity when the cytotoxicity rate was within ±2% compared to that of “control (cells cultured with 20 mM HEPES-HBSS without a test sample, instead of 20 mM HEPES-HBSS containing a test sample; shown as “No Addition” in Table 1)”.
The amount of GLP-1 secretion was determined as a relative value to the average value of the GLP-1 secretion amount obtained for a control (cells cultured with 20 mM HEPES-HBSS without a test sample instead of 20 mM HEPES-HBSS containing a test sample; shown as “No Addition” in Table 1). In Table 1, the GLP-1 secretion amounts when mGN and flavor components were used separately and the GLP-1 secretion amounts when mGN and flavor components were used in combination were shown. […] The synergistic effect of mGN and flavor components in promoting GLP-1 secretion was judged based on the following criteria.
Synergistic Effect: Theoretical Value<(is less than) Measured Value • Theoretical Value=([…])×100+(B/D−1)×100 • Measured Value=(C/D-1)×100
The theoretical value and the measure value were compared based on the above formula. When the measured value was higher than the theoretical value, it was judged that there was a synergistic effect, which was indicated as “O” in the table.
The presence or absence of the synergistic effect by the combination of mGN and thymol was judged based on the formula used in Experiment 1-3. When the measured value was higher than the theoretical value, it was judged that there was a synergistic effect and it was indicated as “O” in the table. Furthermore, a Tukey-Kramer test was performed. When there was a significant difference (Risk Rate p<0.05) between the GLP-1 secretion amount of the combination of mGN and thymol (C) and each of the GLP-1 secretion amount of Control (D), mGN alone (A), and thymol alone (B), it was indicated “⊚” in the below table.

[1] = Homo sapiens, NCI-H716, 2 h, Table 1, Experiment 1-3, test sample alone at 0.25 mM, Control (No Addition) = 100, 2 hours, read-out: GLP-1 secretion amount, Independent Use (relative value to Control)
[2] = Experiment 1-3, flavor component alone 0.25 mM
[3] = Table 1, Experiment 1-3, test sample alone at 0.25 mM, Control (No Addition) = 100, 2 hours
[4] = Homo sapiens, NCI-H716, 2 h, Table 4, Experiment 4, Control = 100, N=3, read-out: GLP-1 secretion amount, Independent Use (relative value to Control)
[5] = Homo sapiens, NCI-H716, 2 h, Table 4, Experiment 4, test sample alone at 0.25 mM, Control = 100, N=3, read-out: GLP-1 secretion amount, Independent Use (relative value to Control)
[6] = Homo sapiens, NCI-H716, 2 h, Table 3, Experiment 3, Control = 100, N=3, read-out: GLP-1 secretion amount, Independent Use (relative value to Control)
[7] = Homo sapiens, NCI-H716, 2 h, Table 2, Experiment 2, Control = 100, N=3, read-out: GLP-1 secretion amount, Independent Use (relative value to Control)
[8] = Homo sapiens, NCI-H716, 2 h, Table 6, Experiment 6, Control = 100, N=3, read-out: GLP-1 secretion amount, Independent Use (relative value to Control)

`C=C1C2CCC(C2)C1(C)C` (centres unmarked) [Camphene, camphene] was tested, and the activity at 250 µM [1] was 135%.

`CC(C)=CCCC(C)=CC=O` [Citral, citral, reference compound] was tested, and the “GLP-1 secretion compared to Control” value was “approximately 2.4 times” and the activity at 250 µM [1] was 246%.

Work on `CC(C)=CCCC(C)CC=O` (centres unmarked) [Citronellal, citronellal, reference compound] yielded an activity at 250 µM [1] of 113%.

For `CNc1ccccc1C(=O)OC` [Methyl N-methyl anthranilate, methyl N-methyl anthranilate], the “GLP-1 secretion promoting effect when used alone (in words)” value (from here on “GLP-1 secretion promoting effect”) [2] was “no GLP-1 secretion promoting effect” and the “GLP-1 secretion amount, Independent Use (relative value to Control)” value [3] was 73.

With `COC(=O)c1ccccc1N` [Methyl anthranilate, methyl anthranilate] the “GLP-1 secretion promoting effect” value [2] was “no GLP-1 secretion promoting effect” and the activity at 250 µM (Homo sapiens, NCI-H716, 2 h, read-out: GLP-1 secretion amount, Independent Use (relative value to Control)) was 73%.

In the case of `C=C(C)[C@@H]1CCC2=CC(=O)C[C@@H](C)[C@]2(C)C1` [Nootkatone, nootkatone], the “GLP-1 secretion when used alone (in words)” value (Experiment 4, alone, concentrations of Table 4) is reported as “promoted in a nootkatone concentration-dependent manner”, the activity at 250 µM [1] is reported as 457% and the activity at 12.5 µM (Homo sapiens, NCI-H716, 2 h, Table 4, Experiment 4, test sample alone at 0.0125 mM, Control = 100, N=3, read-out: GLP-1 secretion amount, Independent Use (relative value to Control)) is reported as 70%. For the same compound, the activity at 37.5 µM (Homo sapiens, NCI-H716, 2 h, Table 4, Experiment 4, test sample alone at 0.0375 mM, Control = 100, N=3, read-out: GLP-1 secretion amount, Independent Use (relative value to Control)) was 111%, the activity at 125 µM [4] was 350% and the activity at 250 µM [5] was 464%.

In the case of `C=C1CCC2(C(C)C)CC12` (centres unmarked) [Sabinene, sabinene], the “GLP-1 secretion promoting effect” value [2] is reported as “no GLP-1 secretion promoting effect” and the activity at 250 µM [1] is reported as 101%.

In the case of `Cc1ccc(C(C)C)c(O)c1` [Thymol, thymol], the “GLP-1 secretion promoting effect” value [2] is reported as “no GLP-1 secretion promoting effect”, the “GLP-1 secretion-promoting effect when used alone (in words)” value (Experiment 2, alone at a concentration of 0.25 mM) is reported as “no GLP-1 secretion-promoting effect was observed” and the “GLP-1 secretion promoting effect” value (Experiment 3, alone, 0.0067 mM to 0.125 mM) is reported as “no GLP-1 secretion promoting effect”. For the same compound, the activity at 250 µM [1] was 82%, the activity at 6.7 µM (Homo sapiens, NCI-H716, 2 h, Table 3, Experiment 3, test sample alone at 0.0067 mM, Control = 100, N=3, read-out: GLP-1 secretion amount, Independent Use (relative value to Control)) was 34% and the activity at 25 µM [6] was 61%. For the same compound, the activity at 125 µM [6] was 65%.

With `C=C(C)[C@@H]1CCC2=CCC[C@@H](C)[C@]2(C)C1` [Valencene, valencene] the “GLP-1 secretion amount, Independent Use (relative value to Control)” value [3] was 121.

`CC1O[C@@H](OC2[C@H](Oc3cc(O)c4c(c3)OC(c3ccc(O)cc3)CC4=O)OC(CO)[C@@H](O)[C@H]2O[C@H]2OC(CO)[C@@H](O)[C@@H](O)C2O)C(O)[C@@H](O)[C@H]1O` (stereo partly drawn) [mGN, 3″-α-monoglucosyl naringin] was tested, and the “GLP-1 secretion compared to Control” value was “approximately 1.6 times”, the “GLP-1 secretion when used alone (in words)” value (Experiment 2, alone, 0.025 mM to 150 mM) was “promoted to some extent in a mGN concentration-dependent manner” and the activity at 2500 µM (Homo sapiens, NCI-H716, 2 h, Table 1, Experiment 1-3, Control (No Addition) = 100, 2 hours, read-out: GLP-1 secretion amount, Independent Use (relative value to Control)) was 164%. It also gave an activity at 25 µM [7] of 45%, an activity at 250 µM (Homo sapiens, NCI-H716, 2 h, Table 2, Experiment 2, test sample alone at 0.25 mM, Control = 100, N=3, read-out: GLP-1 secretion amount, Independent Use (relative value to Control)) of 63% and an activity at 2500 µM [7] of 121%. It also gave an activity at 25000 µM [7] of 427%, an activity at 25000 µM [6] of 521% and an activity at 25 µM [4] of 39%. For the same compound, the activity at 250 µM [5] was 63%, the activity at 2500 µM [4] was 85% and the activity at 12500 µM (Homo sapiens, NCI-H716, 2 h, Table 4, Experiment 4, test sample alone at 12.5 mM, Control = 100, N=3, read-out: GLP-1 secretion amount, Independent Use (relative value to Control)) was 502%. The activity at 25 µM (Homo sapiens, NCI-H716, 2 h, Table 5, Experiment 5, Control = 100, N=3, read-out: GLP-1 secretion amount, Independent Use (relative value to Control)) was 39%, the activity at 25 µM [8] was 53% and the activity at 25000 µM [8] was 457%.

`CC1=CCC2CC1C2(C)C` (stereo not drawn) [α-Pinene, α-pinene] showed an activity at 250 µM [1] of 136%.

In the case of `C=C1CC/C=C(\C)CC[C@@H]2[C@@H]1CC2(C)C` [β-Caryophyllene, β-caryophyllene], the “GLP-1 secretion amount, Independent Use (relative value to Control)” value [3] is reported as 111.

With `CC(=O)/C=C/C1=C(C)CCCC1(C)C` [β-Ionone, β-ionone] the “GLP-1 secretion amount, Independent Use (relative value to Control)” value [3] was 157.

In the case of `C=C1CCC2CC1C2(C)C` (stereo not drawn) [β-Pinene, β-pinene], the “GLP-1 secretion promoting effect” value [2] is reported as “no GLP-1 secretion promoting effect” and the activity at 250 µM [1] is reported as 100%.
